Assay: xn = mol fraction of the nth substance listed

CC[n+]1ccn(C)c1.[Cl][Al-]([Cl])([Cl])[Cl] + CCn1cc[n+](C)c1.[Cl][Al-]([Cl])([Cl])[Cl+][Al-]([Cl])([Cl])[Cl]
100 kPa
Details | viscosity [mPa·s]
293.15 K, x2 = 0.2046 | 19.38
303.15 K, x2 = 0 | 15.69
303.15 K, x2 = 0.3035 | 14.44
303.15 K, x2 = 0.5041 | 13.77
303.15 K, x2 = 0.6955 | 13.21
323.15 K, x2 = 0.4003 | 9.033
323.15 K, x2 = 0.5962 | 8.65
323.15 K, x2 = 0.6955 | 8.468
323.15 K, x2 = 0.7963 | 8.286
333.15 K, x2 = 0.1016 | 8.016
333.15 K, x2 = 0.2046 | 7.821
333.15 K, x2 = 0.8901 | 6.726
343.15 K, x2 = 0.5962 | 6.037
343.15 K, x2 = 0.6955 | 5.906
353.15 K, x2 = 0.1016 | 5.806

CCCCCCCCCCCC[N+](C)(C)C.[Br-] + [Cl-].[Na+] + O
298.15 K, 101 kPa
Details | electrical conductivity [S/m]
x1 = 2.89e-06, x2 = 0.001799 | 0.8786
x1 = 4.51e-06, x2 = 0.0001802 | 0.1179
x1 = 7.42e-06, x2 = 0.001799 | 0.8778
x1 = 9.37e-06, x2 = 0.0001802 | 0.1201
x1 = 1.357e-05, x2 = 0.001799 | 0.878
x1 = 1.406e-05, x2 = 0.0001802 | 0.1223
x1 = 2.037e-05, x2 = 0.0001802 | 0.1252
x1 = 2.28e-05, x2 = 0.001799 | 0.8786
x1 = 2.92e-05, x2 = 0.0001802 | 0.1294
x1 = 3.184e-05, x2 = 0.001799 | 0.8802
x1 = 4.038e-05, x2 = 0.0001802 | 0.1348
x1 = 4.071e-05, x2 = 0.001799 | 0.8816
x1 = 4.957e-05, x2 = 0.001799 | 0.8831
x1 = 5.047e-05, x2 = 0.0001802 | 0.1397
x1 = 5.536e-05, x2 = 0.001799 | 0.8846
x1 = 6.115e-05, x2 = 0.001799 | 0.8858
x1 = 6.183e-05, x2 = 0.0001802 | 0.1451
x1 = 6.694e-05, x2 = 0.001799 | 0.8876
x1 = 7.273e-05, x2 = 0.001799 | 0.8895
x1 = 7.319e-05, x2 = 0.0001801 | 0.1504
x1 = 7.87e-05, x2 = 0.001799 | 0.8913
x1 = 8.4e-05, x2 = 0.0001801 | 0.1556
x1 = 8.467e-05, x2 = 0.001799 | 0.893
x1 = 9.064e-05, x2 = 0.001799 | 0.8946
x1 = 9.481e-05, x2 = 0.0001801 | 0.1607
x1 = 9.642e-05, x2 = 0.001799 | 0.8963
x1 = 0.000102, x2 = 0.001799 | 0.8978
x1 = 0.0001071, x2 = 0.0001801 | 0.1667
x1 = 0.0001078, x2 = 0.001799 | 0.8993
x1 = 0.0001134, x2 = 0.001799 | 0.9008
x1 = 0.0001199, x2 = 0.0001801 | 0.1727
x1 = 0.0001219, x2 = 0.001799 | 0.9032
x1 = 0.0001275, x2 = 0.001799 | 0.9048
x1 = 0.0001309, x2 = 0.0001801 | 0.1778
x1 = 0.0001331, x2 = 0.001799 | 0.9066
x1 = 0.0001415, x2 = 0.001798 | 0.9086
x1 = 0.0001435, x2 = 0.0001801 | 0.1838
x1 = 0.0001498, x2 = 0.001798 | 0.9101
x1 = 0.0001548, x2 = 0.0001801 | 0.1892
x1 = 0.0001554, x2 = 0.001798 | 0.9111
x1 = 0.000161, x2 = 0.001798 | 0.9122
x1 = 0.0001673, x2 = 0.0001801 | 0.1949
x1 = 0.0001693, x2 = 0.001798 | 0.9132
x1 = 0.0001776, x2 = 0.001798 | 0.9143
x1 = 0.0001793, x2 = 0.0001801 | 0.2005
x1 = 0.0001856, x2 = 0.001798 | 0.9156
x1 = 0.0001914, x2 = 0.0001801 | 0.2061
x1 = 0.0001935, x2 = 0.001798 | 0.9166
x1 = 0.0002017, x2 = 0.001798 | 0.9175
x1 = 0.0002022, x2 = 0.0001801 | 0.2111
x1 = 0.0002098, x2 = 0.001798 | 0.9186
x1 = 0.0002138, x2 = 0.0001801 | 0.2164
x1 = 0.000218, x2 = 0.001798 | 0.9197
x1 = 0.0002251, x2 = 0.0001801 | 0.2214
x1 = 0.0002259, x2 = 0.001798 | 0.9207
x1 = 0.0002339, x2 = 0.001798 | 0.9217
x1 = 0.0002365, x2 = 0.0001801 | 0.2263
x1 = 0.000246, x2 = 0.0001801 | 0.2301
x1 = 0.000257, x2 = 0.0001801 | 0.2333
x1 = 0.0002685, x2 = 0.0001801 | 0.2357
x1 = 0.0002797, x2 = 0.0001801 | 0.2376
x1 = 0.0002912, x2 = 0.0001801 | 0.2394
x1 = 0.0003044, x2 = 0.0001801 | 0.2413
x1 = 0.000319, x2 = 0.0001801 | 0.2432
x1 = 0.0003359, x2 = 0.0001801 | 0.2454
x1 = 0.0003538, x2 = 0.0001801 | 0.2477
x1 = 0.0003736, x2 = 0.0001801 | 0.2502
x1 = 0.0003955, x2 = 0.0001801 | 0.2528
x1 = 0.0004254, x2 = 0.0001801 | 0.2566

C[N+]1(CCOCCOCCOCCOCC[N+]2(C)CCCC2)CCCC1.N#C[N-]C#N.N#C[N-]C#N + CC[n+]1ccn(C)c1.N#C[N-]C#N + O=S(=O)([N-]S(=O)(=O)C(F)(F)F)C(F)(F)F.[Li+]
100 kPa, x1 = 0.2352, x2 = 0.6725
Details | electrical conductivity [S/m]
298 K | 0.37
303 K | 0.435
313 K | 0.646
323 K | 0.941
333 K | 1.2
343 K | 1.51
